# Laboratory results taken from PubChem BioAssay (NCI).
# “And” between values parts separate entries of the source, which are not always exact repeats. Equal values may be shown once.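 1) Cells in 96-well plates. 2) Compound, 48 h, 5 concentrations. 3) Linear interpolation between surrounding doses. 4) Unreached endpoint = highest concentration. Abbreviation: GI50, concentration required for 50% inhibition of growth. The concentration for full growth arrest is given as TGI.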
# What was measured:
# Test in all cases: growth of human tumour cells (NCI), 48 h
# [1] = test system: K-562 leukemia
# [2] = test system: UO-31 renal
# [3] = test system: SF-539 CNS
# [4] = test system: RPMI-8226 leukemia
# [5] = test system: NCI-H226 lung
# [6] = test system: HCT-15 colon
# [7] = test system: SK-MEL-5 melanoma
# [8] = test system: NCI-H460 lung
# [9] = test system: SNB-19 CNS
# [10] = test system: OVCAR-3 ovarian
structure (smiles),measurement,setting,value
CCN(CC)CCC(=O)c1ccc(Sc2ccc(F)cc2)cc1,TGI,[1],> 100 µM
same,TGI,[2],31.9 µM
same,TGI,[3],32.9 µM
same,TGI,[4],9.74 µM
same,TGI,[5],39.2 µM
same,TGI,[6],33.4 µM
same,TGI,[7],34.5 µM
same,TGI,[8],41.1 µM
same,TGI,[9],34 µM
same,TGI,[10],40.9 µM
C=CCc1[nH]c2c(OCc3ccccc3)cc(N(CC=C)C(C)=O)cc2c1C,TGI,[1],> 100 µM
same,TGI,[2],21.3 µM
same,TGI,[3],32 µM
same,TGI,[4],67.6 µM
same,TGI,[5],37.2 µM
same,TGI,[6],25.6 µM
same,TGI,[7],24 µM
same,TGI,[8],27.9 µM
same,TGI,[9],25.3 µM
same,TGI,[10],29.6 µM
COC(=O)CCC(C)[C@H]1CCC2C3C(C[C@H](OC(C)=O)[C@@]21C)[C@@]1(C)CCC2(C[C@H]1C[C@H]3OC(C)=O)OOC1(CCCC1)OO2 (some centres not stated),TGI,[1],> 100 µM
same,TGI,[2],27.8 µM
same,TGI,[3],> 100 µM
same,TGI,[4],9.44 µM
same,TGI,[5],> 100 µM
same,TGI,[6],> 100 µM
same,TGI,[7],> 100 µM
same,TGI,[8],> 100 µM
same,TGI,[9],> 100 µM
same,TGI,[10],> 100 µM
COc1ccc(CC2C3=C(CCN2C(=O)C2CCC2)CC2(CC3)OCCO2)cc1O (configuration not stated),TGI,[1],84.4 µM
same,TGI,[2],1.49 µM
same,TGI,[3],75.9 µM
same,TGI,[4],> 100 µM
same,TGI,[5],> 100 µM
same,TGI,[6],46.2 µM
same,TGI,[7],> 100 µM
same,TGI,[8],> 100 µM
same,TGI,[9],> 100 µM
same,TGI,[10],35.4 µM
Cn1c(NNc2ccccc2)cc(=O)[nH]c1=O,TGI,[1],> 100 µM
same,TGI,[2],> 100 µM
same,TGI,[3],> 100 µM
same,TGI,[4],> 100 µM
same,TGI,[5],> 100 µM
same,TGI,[6],> 100 µM
same,TGI,[7],70.1 µM
same,TGI,[8],> 100 µM
same,TGI,[9],> 100 µM
same,TGI,[10],61.6 µM
CCCC(=O)Nc1cc(/C=C/C(=O)N2CC(CCl)c3c2cc(OCc2ccccc2)c2[nH]cc(C)c32)n(C)c1 (configuration not stated),TGI,[1],0.904 µM
same,TGI,[2],0.215 µM
same,TGI,[3],0.165 µM
same,TGI,[4],1.3 µM
same,TGI,[5],0.941 µM
same,TGI,[6],0.93 µM
same,TGI,[7],0.131 µM
same,TGI,[8],0.0588 µM
same,TGI,[9],24.6 µM
same,TGI,[10],0.512 µM
Cc1cc(O)c2c(c1O)C(=O)c1cccc(O)c1C2=O,TGI,[1],> 100 µM
same,TGI,[2],> 100 µM
same,TGI,[3],> 100 µM
same,TGI,[4],> 100 µM
same,TGI,[5],> 100 µM
same,TGI,[6],> 100 µM
same,TGI,[7],> 100 µM
same,TGI,[8],> 100 µM
same,TGI,[9],> 100 µM
same,TGI,[10],> 100 µM
C=C1CCCC2[C@](C)(CC3=C(Cl)C(=O)C=C(OC)C3=O)C(C)CC[C@]12C (some centres not stated),TGI,[1],13.1 µM
same,TGI,[2],5.77 µM
same,TGI,[3],9.06 µM
same,TGI,[4],14.6 µM
same,TGI,[5],14.7 µM
same,TGI,[6],13.9 µM
same,TGI,[7],12.5 µM
same,TGI,[8],19.4 µM
same,TGI,[9],13.9 µM
same,TGI,[10],11.9 µM
Cc1c2ccnc(C(=O)NCCN(C)C)c2cc2c3cc(O)ccc3n(C)c12,TGI,[1],2.4 µM
same,TGI,[2],4.11 µM
same,TGI,[3],1.3 µM
same,TGI,[4],1.14 µM
same,TGI,[5],2.26 µM
same,TGI,[6],4.39 µM
same,TGI,[7],1.45 µM
same,TGI,[8],1.39 µM
same,TGI,[9],5.16 µM
same,TGI,[10],2.77 µM
N#C[C@H](C(=O)c1ccccc1F)c1nc2ccccc2s1,TGI,[1],> 100 µM
same,TGI,[2],> 100 µM
same,TGI,[3],59.8 µM
same,TGI,[4],> 100 µM
same,TGI,[5],> 100 µM
same,TGI,[6],> 100 µM
same,TGI,[7],> 100 µM
same,TGI,[8],94.2 µM
same,TGI,[9],> 100 µM
same,TGI,[10],63.7 µM
COc1cc([C@@H]2c3cc4c(c(O)c3C[C@H]3COC(=O)[C@@H]32)OCO4)cc(OC)c1OC,GI50,[1],0.141 µM
same,GI50,[2],0.466 µM
same,TGI,[2],56.2 µM and 120 µM and > 100 µM
same,GI50,[3],0.065 µM
same,TGI,[4],27.4 µM and > 241 µM
same,GI50,[5],0.364 µM
same,TGI,[5],150 µM and 19.6 µM
same,GI50,[6],0.19 µM
same,GI50,[7],0.0407 µM
same,GI50,[8],0.0564 µM
same,GI50,[9],0.114 µM
same,GI50,[10],0.089 µM
CC1=NN(c2nc(N)nc(CBr)n2)C(C)(C)C1,TGI,[1],> 100 µM
same,TGI,[2],1.61 µM
same,TGI,[3],5.25 µM
same,TGI,[4],5.61 µM
same,TGI,[5],12.2 µM
same,TGI,[6],16.6 µM
same,TGI,[7],26.2 µM
same,TGI,[8],23.8 µM
same,TGI,[9],36.6 µM
same,TGI,[10],13.4 µM
COc1ccc(OC)c(CSc2ccc(OC)c(OC)c2)c1,TGI,[1],> 100 µM
same,TGI,[2],> 100 µM
same,TGI,[3],> 100 µM
same,TGI,[4],> 100 µM
same,TGI,[5],> 100 µM
same,TGI,[6],> 100 µM
same,TGI,[7],> 100 µM
same,TGI,[8],> 100 µM
same,TGI,[9],> 100 µM
same,TGI,[10],> 100 µM
CCc1c(CN)c(CC)c(CNC2=NCCN2)c(CC)c1CNC1=NCCN1,TGI,[1],> 100 µM
same,TGI,[2],> 100 µM
same,TGI,[3],> 100 µM
same,TGI,[4],> 100 µM
same,TGI,[5],> 100 µM
same,TGI,[6],> 100 µM
same,TGI,[7],> 100 µM
same,TGI,[8],> 100 µM
same,TGI,[9],> 100 µM
same,TGI,[10],> 100 µM
FC(F)(F)c1ccc(Cc2nc3cc4ccccc4cc3[nH]2)cc1,TGI,[1],> 100 µM
same,TGI,[2],> 100 µM
same,TGI,[3],> 100 µM
same,TGI,[4],> 100 µM
same,TGI,[5],> 100 µM
same,TGI,[6],> 100 µM
same,TGI,[7],> 100 µM
same,TGI,[8],> 100 µM
same,TGI,[9],> 100 µM
same,TGI,[10],> 100 µM
Cc1ccc(S(=O)(=O)N2CCN(S(=O)(=O)c3ccc(C)cc3)CCN(S(=O)(=O)c3ccc(C)cc3)Cc3cc(C#N)c(C#N)cc3CN(S(=O)(=O)c3ccc(C)cc3)CC2)cc1,TGI,[1],> 100 µM
same,TGI,[2],> 100 µM
same,TGI,[3],> 100 µM
same,TGI,[4],> 100 µM
same,TGI,[5],> 100 µM
same,TGI,[6],> 100 µM
same,TGI,[7],> 100 µM
same,TGI,[8],> 100 µM
same,TGI,[9],> 100 µM
same,TGI,[10],> 100 µM
